Measured values from patent US7829591B2, “Flavanone compound and uses thereof” (Pokka Corporation, priority 2003, dated 2010).

Tested on: breast cancer cells (MCF-7)
Test: Breast cancer cell proliferation-inhibition test
Type: cell-based
Conditions: for Relative Value of Living Cells: 0.1 nM estradiol, Control 1 at 0 day = 1; for inhibiting effect on the proliferation of breast cancer cells (in words): 20 μM, compared with Control 1
Experimental: When breast cancer cells (MCF-7) are cultured, if estradiol (or 17β-estradiol) having a cell-proliferation accelerating action, is added thereto, the proliferation of breast cancer cells can be simply promoted in a short period. This phenomenon was utilized so as to examine the effect of each of Compounds 1 to 4 and the like on the proliferation inhibition of breast cancer cells. That is, first of all, each of Compounds 1 to 4 was diluted with dimethyl sulfoxide to prepare a sample solution. Thereafter, 2×10^3 of MCF-7 were inoculated in each well of a 96-well plate, and estradiol and the sample solution were added thereto after 4 hours. Estradiol was added to each compartment so that the final concentration of estradiol can be 0.1 nM, and the final concentration of the sample solution can be 0.2 μM, 2 μM, or 20 μM. After incubation for a predetermined period of time (three or five days), each of the media was replaced with a new medium, and an enzyme solution (Cell counting Kit-8: Wako) was added to the new medium in an amount of 10% of the new medium. After maintained the medium in an incubator at a temperature of 37° C. for two hours, the absorbance of the medium was determined at a wavelength of 450 nm (a reference wave length of 630 nm) by means of a spectrophotometer so as to quantify the number of living cells in each compartment.
As for the compartment whose incubation period is predetermined to be five days, on the third day of the incubation, the medium was replaced with a new medium, and thereafter, estradiol and a sample solution were added to the new medium, and the incubation was continued till fifth day. As for the compartment whose incubation period is predetermined to be 0 day, at four hours after the cells were inoculated, an enzyme solution was added to the medium. The medium was maintained in an incubator at a temperature of 37° C. for two hours, followed by determining the absorbance.
Instead of Compounds 1 to 4, eriodictyol was used to determine the absorbance according to a similar procedure to the above-mentioned one, and thus the number of living cells in each compartment was quantified. Furthermore, Control 1 to which neither estradiol nor a sample had been added was used to determine the absorbance according to a similar procedure to the above-mentioned one, and thus the number of living cells in each compartment was quantified, while Control 2 to which no sample had been added was used to determine the absorbance according to a similar procedure to the above-mentioned one, and thus the number of living cells in each compartment was quantified.
When it is assumed that the number of living cells of Control 1 as quantified after a zero-day incubation period is 1, the relative value of living cells as quantified in each of the runs mentioned above is shown in Table 2. Incidentally, each of values shown in Table 2 is the average value and standard deviation of values obtained from eight wells.

[1] = 0.2 μM sample, after 3-days incubation
[2] = 0.2 μM sample, after 5-days incubation
[3] = 0.2 μM sample, on 0-day incubation, mean ± SD of eight wells
[4] = 2 μM sample, after 3-days incubation
[5] = 2 μM sample, after 5-days incubation
[6] = 2 μM sample, on 0-day incubation
[7] = 20 μM sample, after 3-days incubation
[8] = 20 μM sample, after 5-days incubation
[9] = 20 μM sample, on 0-day incubation

Row | SMILES | Relative Value of Living Cells [1] | Relative Value of Living Cells [2] | Relative Value of Living Cells [3] | Relative Value of Living Cells [4] | Relative Value of Living Cells [5] | Relative Value of Living Cells [6] | Relative Value of Living Cells [7] | Relative Value of Living Cells [8] | Relative Value of Living Cells [9] | inhibiting effect on the proliferation of breast cancer cells (in words)
1 | CC(C)=CCC/C(C)=C/Cc1cc([C@@H]2CC(=O)c3c(O)cc(O)cc3O2)cc(O)c1O [Compound 2, 5,7,3′,4′-tetrahydroxy-5′-C-geranylflavanone] | 2.97 ± 0.37 | 6.83 ± 0.58 | 0.95 ± 0.04 | 2.68 ± 0.19 | 6.59 ± 0.50 | 0.99 ± 0.04 | 2.59 ± 0.21 | 5.59 ± 1.01 | 1.00 ± 0.07 | –
2 | CC(C)=CCC/C(C)=C/Cc1c([C@@H]2CC(=O)c3c(cc(O)c(CC=C(C)C)c3O)O2)ccc(O)c1O [Compound 4, 5,7,3′,4′-tetrahydroxy-6-(3′″,3′″-dimethylallyl)-2′-C-geranylflavanone] | 2.97 ± 0.27 | 6.30 ± 0.54 | 0.99 ± 0.04 | 3.03 ± 0.30 | 6.41 ± 0.53 | 1.00 ± 0.07 | 1.27 ± 0.20 | 1.01 ± 0.12 | 0.98 ± 0.04 | cytotoxic effect upon breast cancer cells
3 | CC(C)=CCC/C(C)=C/Cc1c([C@@H]2CC(=O)c3c(O)cc(O)cc3O2)ccc(O)c1O [Compound 1, 5,7,3′,4′-tetrahydroxy-2′-C-geranylflavanone] | 2.86 ± 0.14 | 7.26 ± 0.48 | 0.98 ± 0.04 | 2.58 ± 0.11 | 6.01 ± 0.25 | 0.99 ± 0.05 | 2.22 ± 0.19 | 4.17 ± 0.50 | 1.01 ± 0.05 | –
4 | CC(C)=CCC/C(C)=C/Cc1c(O)cc2c(c1O)C(=O)C[C@@H](c1ccc(O)c(O)c1)O2 [Compound 3, 5,7,3′,4′-tetrahydroxy-6-C-geranylflavanone] | 2.94 ± 0.20 | 6.99 ± 0.66 | 0.99 ± 0.05 | 2.53 ± 0.30 | 5.38 ± 0.44 | 1.01 ± 0.05 | 1.21 ± 0.22 | 0.89 ± 0.12 | 0.96 ± 0.04 | cytotoxic effect upon breast cancer cells
